Laboratory results reported in PubChem BioAssay (NCI).
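Values below derive from 48-hour exposures of cells grown in 96-well plates, with endpoints linearly interpolated between the two concentrations bracketing the appropriate inhibition level. GI50 = concentration required for 50% inhibition of growth. The concentration for full growth arrest is given as TGI.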

Columns and labels:
Assay in all cases: NCI-60 cell line screen, 48 h
A549 NSCLC = test system: A549 NSCLC
HCT-116 colon = test system: HCT-116 colon
HL-60(TB) leukemia = test system: HL-60(TB) leukemia
HOP-92 NSCLC = test system: HOP-92 NSCLC
M14 melanoma = test system: M14 melanoma
MOLT-4 leukemia = test system: MOLT-4 leukemia
OVCAR-4 ovarian = test system: OVCAR-4 ovarian
RPMI-8226 leukemia = test system: RPMI-8226 leukemia
SW-620 colon = test system: SW-620 colon
UO-31 renal = test system: UO-31 renal

Structure (SMILES) | GI50 (A549 NSCLC) [µM] | TGI (A549 NSCLC) [µM] | GI50 (HCT-116 colon) [µM] | TGI (HCT-116 colon) [µM] | GI50 (HL-60(TB) leukemia) [µM] | GI50 (HOP-92 NSCLC) [µM] | TGI (HOP-92 NSCLC) [µM] | GI50 (M14 melanoma) [µM] | TGI (M14 melanoma) [µM] | GI50 (MOLT-4 leukemia) [µM] | TGI (MOLT-4 leukemia) [µM] | GI50 (OVCAR-4 ovarian) [µM] | TGI (OVCAR-4 ovarian) [µM] | GI50 (RPMI-8226 leukemia) [µM] | TGI (RPMI-8226 leukemia) [µM] | GI50 (SW-620 colon) [µM] | TGI (SW-620 colon) [µM] | GI50 (UO-31 renal) [µM] | TGI (UO-31 renal) [µM] | TGI (HL-60(TB) leukemia) [µM]
CNC(=O)c1cc(Oc2ccc3c(c2)sc2nc(-c4ccc(N)cc4)cn23)ccn1 | 0.474 | > 100 | 0.211 | > 100 | 0.108 | 5.98 | > 100 | 0.162 | > 100 | 0.26 | > 60.8 | 2.49 | > 100 | 0.32 | 26.3 | 0.153 | > 100 | 0.467 | > 100 | –
C[C@@H]1Cc2c([nH]c3ccccc23)[C@@H](c2c(F)cc(/C=C/C(=O)O)cc2F)N1CC(C)(C)F | 11.6 | 26.6 | 12.7 | 26.7 | 15.8 | 15 | 30.8 | 14 | 34.5 | 11.2 | 34.9 | 15.2 | 52.8 | 8.1 | 37.6 | 12.5 | 29 | 8.1 | 21.6 | 39.4
OCCNCO | – | > 100 | – | > 100 | – | – | > 100 | – | > 100 | – | > 100 | – | > 100 | – | > 100 | – | > 100 | – | > 100 | > 100
C#CC(C)(C)Oc1cc(O)c2c(=O)c3ccccc3n(C)c2c1 | – | > 100 | – | > 100 | – | – | > 100 | – | > 100 | – | > 100 | – | > 100 | – | – | – | – | – | > 100 | > 100
COc1cc2c(NCCCCCCO[N+](=O)[O-])ncnc2c(OC)c1OC | – | > 95.7 | – | 62.5 | – | – | 47.1 | – | 36.8 | – | > 61.9 | – | > 100 | – | 32.2 | – | 70.5 | – | 21.2 | 54.8
CC[n+]1ccc2c(c1)C(=O)c1nccc3c1c-2nc1ccccc13 | 0.958 | 13.5 | 1.1 | 7.18 | 5.79 | 1.45 | 7.02 | 0.943 | 4.38 | 1.27 | 7.31 | 0.941 | 4.1 | 6.49 | 21.7 | 1.1 | 11.5 | 0.948 | 8.42 | 16.9
CC1=CCCC(OC(N)=O)C1 (configuration not stated) | – | > 100 | – | > 100 | – | – | > 100 | – | > 100 | – | > 100 | – | > 100 | – | > 100 | – | > 100 | – | > 100 | > 100
O=[n+]1c(CBr)c(CBr)n([O-])c2ccccc21 | 17.4 | 35.6 | 3.94 | 14.5 | 2.26 | 4.61 | 17.8 | 4.65 | 17.6 | 3.62 | 14.7 | 6.81 | 20.4 | 2.73 | 8.39 | 1.86 | 3.69 | 1.44 | 3 | 5.8
